Patent US9873702B2, “Heterocyclic compounds as biogenic amine transport modulators” (Southern Research Institute, priority 2014, dated 2018)
Read-outs that look alike come from different tables or passages of the source.

Key:
[1] = molecular target: T1, serotonin transporter (SERT) (Rattus norvegicus, UniProt P31652); assay: Serotonin reuptake ([^3H]serotonin uptake) inhibition in rat brain synaptosomes; type: biochemical
T1 construct: Freshly removed whole brain minus cerebellum and caudate was homogenized; from tissue; host or cells: rat whole brain minus cerebellum and caudate, synaptosomes

[2] = molecular target: T2, DAT (Rattus norvegicus, UniProt P23977); assay: Dopamine transporter binding, inhibition of [^3H]WIN35428 binding in rat caudate membranes; conditions: for EC50: read-out: WIN Binding EC50 (μM ± SD)
T2 construct: from tissue; host or cells: rat caudate membranes
Method: The ability of test drugs to inhibit [^3H]WIN35428 binding to DAT in rat caudate membranes was assessed as follows. For each experiment, caudates from four rat brains were suspended in 15 mL ice cold assay buffer (50 mM sodium phosphate pH 7.4) and homogenized using a polytron (setting 6, 20 sec). The homogenate was centrifuged at 30,000×g for 10 minutes at 4° C. The pellet was resuspended with vigorous vortexing in 15 mL fresh ice cold assay buffer, and the centrifugation was repeated. The pellet was resuspended in 15 mL fresh ice cold assay buffer with vigorous vortexing followed by six strokes with a glass-on-glass hand-held homogenizer and was diluted to a final volume of 235 mL in ice cold assay buffer. [^3H]WIN35428 was diluted to 10 nM in assay buffer that contained 25 μg/mL chymostatin, 25 μg/mL leupeptin, 0.1 mM EDTA, and 0.1 mM EGTA. Each assay tube contained 0.75 mL membrane preparation, 0.15 mL test drug diluted in assay buffer containing 1 mg/mL bovine serum albumin, and 0.1 mL [^3H]WIN35428 preparation (final concentration of 1 nM). Assays were initiated by the addition of membranes and were terminated after 2 hours at 25° C. by rapid vacuum filtration. Retained tritium was measured as described. The data from three experiments were pooled and fit to a dose-response curve equation (using Kaleidagraph), to yield an Emax and EC50 value.

[3] = molecular target: T3, dopamine transporter (DAT) (Rattus norvegicus, UniProt P23977); assay: Dopamine reuptake ([^3H]dopamine uptake) inhibition in rat brain synaptosomes
[4] = molecular target: norepinephrine transporter (NET) (Rattus norvegicus, UniProt Q9WTR4); assay: Norepinephrine reuptake ([^3H]norepinephrine uptake) inhibition in rat brain synaptosomes; conditions: for NE Uptake Emax (% I ± SD): maximal inhibition from dose-response fit
Method: Freshly removed whole brain minus cerebellum and caudate was homogenized in 10% ice-cold sucrose with 12 strokes of a hand-held Potter-Elvehjem homogenizer followed by centrifugation at 1000×g for 10 minutes. The supernatants were saved on ice and used immediately. Transporter activity at NET was assessed using 10 nM [^3H]norepinephrine. […] Uptake inhibition assays were conducted at 37° C. and were initiated by adding 100 μL of tissue to 900 μL assay buffer containing test drug and [^3H]norepinephrine. Test drugs were diluted in assay buffer containing 1 mg/mL bovine serum albumin. Nonspecific uptake was measured by incubating in the presence of 10 μM indatraline. The reactions were stopped after 10 minutes by rapid vacuum filtration with a cell harvester (BRANDEL) over GF/B filters (Whatman) presoaked in wash buffer maintained at 25° C. (10 mM Tris-HCl, pH 7.4/150 mM NaCl). Filters were rinsed with 6 mL wash buffer and retained tritium was quantified by a MicroBeta liquid scintillation counter (PerkinElmer) after overnight extraction in 0.6 mL of liquid scintillation cocktail (Cytoscint, ICN). The data from three experiments were pooled and fit to a dose-response curve equation (using Kaleidagraph), to yield an Emax and EC50 value.
The data from three experiments were pooled and fit to a dose-response curve equation (using KaleidaGraph; Synergy Software, Reading, Pa.) to yield an Emax and IC50 value.

[5] = molecular target: T3, dopamine transporter (DAT); assay: Dopamine transporter-mediated [^3H]MPP^+ release, shift of D-amphetamine-induced release, rat caudate synaptosomes; type: biochemical; set-up: Freshly removed caudate was homogenized in 10% ice-cold sucrose; from tissue; host or cells: rat caudate synaptosomes
[6] = mean ± S.D., n = 3, read-out: SERT Uptake IC50
[7] = 2 h, read-out: DAT Binding εmax
[8] = DAT Uptake IC50, [3H]DA uptake inhibition, mean ± S.D., n = 3
[9] = IC50 for DAT Uptake Inhibition, rounded value as listed in Table 10
[10] = read-out: Emax for DAT Uptake Inhibition
[11] = read-out: NET Uptake IC50, mean ± S.D., n = 3
[12] = Emax of D-amphetamine for [^3H]MPP^+ release in presence of 50 nM test compound
[13] = [3H]MPP+ release, Apparent Kc = [Blocker]/((EC50-2/EC50-1) − 1), negative when shifted EC50 is less than control
[14] = apparent Ke from shift of D-amphetamine-induced [^3H]MPP^+ release, compound at the concentration of column 1, read-out: Ke App
[15] = mean ± S.D., n = 3, read-out: SERT Uptake Emax
[16] = rat brain synaptosomes, 10 nM [^3H]norepinephrine
[17] = read-out: NE Uptake EC50 (nM ± SD), rat brain synaptosomes, 10 nM [^3H]norepinephrine, 10 min, 37° C.
[18] = inhibition of [3H]WIN35428 binding, mean ± S.D., n = 3

T2 sequence (P23977 whole entry): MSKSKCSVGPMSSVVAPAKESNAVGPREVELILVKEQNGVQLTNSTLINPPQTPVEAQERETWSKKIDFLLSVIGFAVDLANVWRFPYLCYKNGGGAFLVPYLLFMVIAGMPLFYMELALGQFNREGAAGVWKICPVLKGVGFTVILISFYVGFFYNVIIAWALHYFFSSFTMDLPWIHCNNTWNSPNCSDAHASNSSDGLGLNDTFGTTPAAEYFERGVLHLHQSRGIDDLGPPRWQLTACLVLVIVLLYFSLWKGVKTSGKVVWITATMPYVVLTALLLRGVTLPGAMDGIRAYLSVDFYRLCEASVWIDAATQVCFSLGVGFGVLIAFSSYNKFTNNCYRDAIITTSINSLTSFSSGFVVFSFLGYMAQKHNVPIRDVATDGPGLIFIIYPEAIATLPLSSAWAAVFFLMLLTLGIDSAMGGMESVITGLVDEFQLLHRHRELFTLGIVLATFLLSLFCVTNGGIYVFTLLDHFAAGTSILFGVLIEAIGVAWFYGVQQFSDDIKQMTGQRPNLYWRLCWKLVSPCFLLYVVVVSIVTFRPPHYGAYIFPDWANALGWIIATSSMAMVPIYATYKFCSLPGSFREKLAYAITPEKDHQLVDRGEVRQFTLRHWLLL
T3 sequence (P23977 whole entry): as above
T1 sequence (P31652 whole entry): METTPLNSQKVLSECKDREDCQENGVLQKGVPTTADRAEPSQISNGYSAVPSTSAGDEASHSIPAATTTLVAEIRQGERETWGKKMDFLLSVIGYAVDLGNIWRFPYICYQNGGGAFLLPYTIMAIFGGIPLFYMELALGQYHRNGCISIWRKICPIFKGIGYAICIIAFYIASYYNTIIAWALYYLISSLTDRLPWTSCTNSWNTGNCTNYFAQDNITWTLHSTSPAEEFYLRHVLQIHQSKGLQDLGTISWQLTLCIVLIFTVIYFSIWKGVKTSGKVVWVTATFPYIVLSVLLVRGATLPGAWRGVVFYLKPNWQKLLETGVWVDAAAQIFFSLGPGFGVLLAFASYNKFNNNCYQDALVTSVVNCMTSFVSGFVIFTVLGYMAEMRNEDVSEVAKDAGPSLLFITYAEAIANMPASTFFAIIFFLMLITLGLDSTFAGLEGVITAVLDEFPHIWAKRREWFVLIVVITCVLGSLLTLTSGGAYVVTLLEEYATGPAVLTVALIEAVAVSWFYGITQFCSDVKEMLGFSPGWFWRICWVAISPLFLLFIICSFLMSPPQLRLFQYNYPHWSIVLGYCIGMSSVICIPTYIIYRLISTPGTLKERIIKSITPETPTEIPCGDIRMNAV

Compound | IC50 [1, 6] [nM] | Emax [2, 7] [%] | IC50 [3, 8] [nM] | IC50 [3, 9] [nM] | Emax ([3]; read-out: DAT Uptake Emax) [%] | Emax [3, 10] [%] | NET Uptake Emax ([4]; mean ± S.D., n = 3) [%] | IC50 [4, 11] [nM] | Apparent Kc [5, 13] [nM] | Kb [5, 14] [nM] | Emax [1, 15] [%] | NE Uptake Emax (% I ± SD) [4, 16] [% I] | IC50 [4, 17] [nM] | further results
Cc1cc2nccn2cc1-c1nc(NCC(c2ccccc2)c2ccncc2)c2ccccc2n1 (centres unmarked) [compound 151, 2-(7-Methylimidazo[1,2-A]Pyridin-6-yl)-N-(2-Phenyl-2-(Pyridin-4-yl)Ethyl)Quinazolin-4-Amine] | 2.4 ± 0.4 | 92 ± 4 | 1.9 ± 0.3 | 2 | 72 ± 2 | 72 | 61 ± 2 | 17 ± 4 | 400 | 400 |  |  |  | D-Amphetamine Emax (% ± SD) [5, 12]: 103 ± 3%
c1ccc(C(CNc2nc(-c3ccc4[nH]ccc4c3)nc3ccccc23)c2ccccc2)cc1 [compound 17, N-(2,2-Diphenylethyl)-2-(1H-indol-5-yl)quinazolin-4-amine] | 68 ± 13 | 87 ± 4 | 10 ± 1 | 10 | 74 ± 1 | 74 | 70 ± 3 | 290 ± 52 | 456 | 456 | 54 ± 2 | 70 ± 3 | 290 ± 52 | EC50 [2]: 0.9 ± 0.2 µM; D-Amphetamine Emax (% ± SD) ([5]; Emax of D-amphetamine for [^3H]MPP^+ release in presence of 250 nM test compound): 94 ± 2%
Cl.Fc1ccc2c(NCC(c3ccccc3)c3ccccc3)nc(-c3ccc4nccn4c3)nc2c1 [compound 124, N-(2,2-Diphenylethyl)-7-Fluoro-2-(Imidazo[1,2-A]Pyridin-6-yl)Quinazolin-4-Amine Hydrochloride] | 25 ± 7 |  | 7.4 ± 1.1 | 7 | 69 ± 1 | 69 | 63 ± 3 | 94 ± 22 |  |  |  | 63 ± 3 | 94 ± 22 | Emax ([1]; read-out: SERT Uptake Emax): 49 ± 2%; DAT Binding IC50 [2, 18]: Inactive; DAT Binding εmax [2, 18]: Inactive; Apparent Kc [5]: 3200 nM; Kb [5]: 3200 nM; D-Amphetamine Emax (% ± SD) ([5]; Emax of D-amphetamine for [^3H]MPP^+ release in presence of 200 nM test compound): 104 ± 5%
CS(=O)(=O)Nc1ccc(-c2nc(NCC(c3ccccc3)c3ccccc3)c3ccccc3n2)cc1 [SRI-29577] | 20 ± 5 | 65 ± 6 | 4.4 ± 0.8 | 4 |  | 70 | 71 ± 2 | 90 ± 15 | -553 |  |  |  |  | 
Cc1cc2nccn2cc1-c1nc(NCC(c2ccccc2)c2ccccc2)c2ccccc2n1 [compound 118, N-(2,2-Diphenylethyl)-2-(7-Methylimidazo[1,2-A]Pyridin-6-yl)Quinazolin-4-Amine] | 3.2 ± 0.9 | 79 ± 3 | 0.5 ± 0.1 | 0.5 | 63 ± 2 | 63 | 67 ± 3 | 21 ± 7 | 267 | 267 | 58 ± 3 | 67 ± 3 | 21 ± 7 | D-Amphetamine Emax (% ± SD) ([5]; Emax of D-amphetamine for [^3H]MPP^+ release in presence of 12.5 nM test compound): 104 ± 3%
c1ccc(C(Nc2nc(-c3ccc4[nH]ccc4c3)nc3ccccc23)c2ccccc2)cc1 [compound 13, N-Benzhydryl-2-(1H-indol-5-yl)quinazolin-4-amine] |  |  |  |  |  |  |  |  |  | 25800 |  | 62 ± 5 | 5850 ± 1750 | IC50 ([1]; rat brain synaptosomes, 5 nM [^3H]serotonin, 30 min, 25° C., read-out: 5HT Uptake EC50 (nM ± SD)): 6380 ± 2640 nM; Emax ([1]; rat brain synaptosomes, 5 nM [^3H]serotonin, maximal inhibition from dose-response fit, read-out: 5HT Uptake Emax (% I ± SD)): 56 ± 9%; EC50 [2]: 2.7 ± 0.3 µM; Emax ([2]; read-out: WIN Binding Emax (% I ± SD)): 77 ± 2%; IC50 ([3]; DA Uptake EC50 (nM ± SD), rat caudate synaptosomes, 5 nM [^3H]dopamine, 15 min, 25° C., three experiments pooled): 212 ± 49 nM; Emax ([3]; read-out: DA Uptake Emax (% I ± SD)): 71 ± 3%; D-Amphetamine Emax (% ± SD) ([5]; Emax of D-amphetamine for [^3H]MPP^+ release in presence of 5000 nM test compound): 96 ± 3%
c1ccc(C(CNc2nc(-c3cnc4nccn4c3)nc3ccccc23)c2ccccc2)cc1 [compound 89, N-(2,2-Diphenylethyl)-2-(Imidazo[1,2-A]Pyrimidin-6-yl)Quinazolin-4-Amine] | 4.7 ± 0.6 | 18 ± 4 | 2.1 ± 0.3 | 2 | 68 ± 1 | 68 | 69 ± 2 | 63 ± 9 | -1070 |  | 51 ± 1 | 69 ± 2 | 63 ± 9 | D-Amphetamine Emax (% ± SD) [5, 12]: 102 ± 2%
